{
  "source": "paper PMC11402852",
  "about": "“Genotoxicity of selected cannabinoids in human lymphoblastoid TK6 cells” (Archives of Toxicology, 2024)",
  "key": {"TK6 cells [1]": {"tested_on": "TK6 cells", "test": "Mitotic disturbance assay", "type": "cell-based, human", "conditions": "6 h, without S9; CBG 30 µM, CBD 15 µM, CBC 15 µM, CBDV 40 µM, CBN 15 µM; vs solvent control", "protocol": "The cells were treated for 6 h with CBG 30 µM, CBD 15 µM, CBC 15 µM, CBDV 40 µM, and CBN 15 µM. The positive control was vincristine sulphate 0.0121 µM, and the solvent control was DMSO. For the experiments with or without the S9 mix (final concentration 0.25%), TK6 cells were treated with either CBDV 40 µM or vincristine sulphate 10 ng/mL for 6 h. DMSO with or without S9 mix was used as control. Further procedure was as described for micronucleus experiments, except with direct harvest after cannabinoid treatment without the incubation period with cytochalasin B. Two slides were evaluated with a Nikon Eclipse 55i fluorescent microscope for each experimental condition. The independent experiments were conducted three times.\nThe cells were counted in categories apoptosis, interphase, prophase, metaphase, anaphase-telophase, disturbed metaphase, and disturbed anaphase-telophase in 1000 cells. The mitotic index was calculated as a sum of the number of cells in prophase, metaphase, anaphase-telophase, disturbed metaphase, and disturbed anaphase-telophase in 1000 cells. Disturbed metaphase and disturbed anaphase-telophase were defined as deviating from the usual appearance of mitoses. Disturbed mitoses were assessed in 100 mitotic cells per slide."}, "[2]": {"tested_on": "human lymphoblastoid TK6 cells", "test": "Kinetochore analysis of micronuclei", "type": "cell-based", "conditions": "4 h", "protocol": "For kinetochore analysis, cells were treated for 4 h with CBG 30 µM, CBD 15 µM, CBC 15 µM, CBDV 40 µM, and CBN 15 µM. The positive controls were MMS 40 µM, and vincristine sulphate 0.0121 µM; the solvent control was DMSO. After 4 h of treatment, the culture medium was renewed, and cells were exposed for 24 h to the cytokinesis inhibitor cytochalasin B (3 μg/mL). Then, cells were harvested, and slides were prepared with cytospin centrifugation. The cells were fixed in ice-cold methanol for 2 h. Kinetochores were stained overnight with undiluted primary anti-centromere antibody at 37 °C followed by 1:20 diluted FITC-conjugated secondary antibody at 37 °C for 2 h. Nuclei were counterstained with Hoechst 33,258 (5 µg/mL, 3 min). The experiment was performed one time. Per compound, 200 micronuclei were evaluated for kinetochore signal presence (Fig. 3). The evaluation was performed with a Keyence BZ-X800 microscope. The slides used in kinetochore evaluation were also evaluated for the number of induced micronuclei as described in the above paragraph cytokinesis‑block micronucleus assay."}, "TK6 cells [3]": {"tested_on": "TK6 cells", "test": "Tubulin visualization", "type": "cell-based, human", "conditions": "6 h; CBG 30 µM, CBD 15 µM, CBC 15 µM, CBN 15 µM; visually compared to control, not quantified", "protocol": "For tubulin visualization, cells were treated with CBG 30 µM, CBD 15 µM, CBC 15 µM, CBDV 40 µM, and CBN 15 µM. The positive control was vincristine sulphate 0.0121 µM, and the solvent control was DMSO. Cells were treated for 6 h and then harvested. Slides were prepared with cytospin centrifugation. The cells were fixed in ice-cold methanol for 2 h. Following fixation, cells were permeabilized with 0.1% Tween20 in 1 × phosphate-buffered saline (PBS) for 5 min. Next, the anti-α-tubulin antibody was applied in 1:50 dilution. Antibody was diluted with 5% FCS in 1 × PBS. The antibody was incubated in a humid chamber at 4 °C for 24 h. Afterwards, the antibody was removed by washing slides twice with 0.5% Tween20 in 1 × PBS for 5 min. Nuclei were counterstained with Hoechst 33,258 (5 µg/mL, 3 min). The visualization was performed with a Keyence BZ-X800 microscope."}, "TK6 cells [4]": {"tested_on": "TK6 cells", "test": "Cell cycle analysis (flow cytometry, DAPI)", "type": "cell-based, human", "conditions": "without S9, CBG 30 µM, CBD 15 µM, CBDV 40 µM", "protocol": "The cells were treated with CBG 30 µM, CBD 15 µM, CBC 15 µM, CBDV 40 µM, and CBN 15 µM for 6 or 24 h. The positive control was vincristine sulphate in a concentration of 0.0121 µM for 6 h of exposure and 0.0061 µM for 24 h. The solvent control was DMSO. Furthermore, experiments with the addition of S9 mix were performed with CBDV. In these experiments, cells were treated with CBDV (40 µM) with or without 0.25% S9 mix for 6 h. DMSO with or without the S9 mix was used as control, and the positive control was the same as mentioned above. After the treatment, cells were collected, washed twice with phosphate buffered saline (PBS) and fixed with 70% ethanol for 30 min on ice. Following each described step above, cells were centrifuged at 1000 rpm, 5 min, and 4 °C. Lastly, cells were resuspended in 1% bovine serum albumin (BSA) in PBS solution and stained with DAPI in a final concentration of 1 µg/mL for 30 min on ice. The cell distribution in different cell cycle phases was analyzed with MACSQuant® Analyzer 16 Flow Cytometer using a 450/50 nm filter and MACSQuantify™ Software 2.13 (Miltenyi Biotec, Bergisch Gladbach, Germany). For each sample, 20 000 events were analyzed. Four independent experiments were performed for 6 h of treatment without metabolic activation. Three independent experiments were done for 24 h of treatment without metabolic activation and 6 h of treatment with metabolic activation."}, "[5]": {"tested_on": "human buccal cell line TR146", "parameters": "method as in Russo et al. ([2019])", "conditions": "ref Russo et al. ([2019]), cited from earlier work"}, "human hepatoma cells": {"tested_on": "human hepatoma cells", "parameters": "method as in Russo et al. ([2019])", "conditions": "3 h of treatment, ref Russo et al. ([2019]); cited from earlier work"}, "colon-derived cells": {"tested_on": "colon-derived cells", "parameters": "method as in Aviello et al. ([2012])", "conditions": "24 h of treatment, ref Aviello et al. ([2012]); cited from earlier work"}, "[6]": {"tested_on": "human lymphoblastoid TK6 cells", "parameters": "method as in Henderson et al. ([2023])", "conditions": "TK6, with and without metabolic activation 4 h, and 27 h without metabolic activation; ref Henderson et al. ([2023]); cited from earlier work"}, "bone marrow of mice": {"tested_on": "bone marrow of mice", "parameters": "method as in Zimmerman and Raj ([1980])", "conditions": "ref Zimmerman and Raj ([1980]); cited from earlier work"}},
  "data": [
    {"smiles": "C=C(C)[C@@H]1CCC(C)=C[C@H]1c1c(O)cc(CCCCC)cc1O", "note": "[CBD, cannabidiol]", "values": [
      {"measurement": "Mitotic index", "setting": "TK6 cells [1]", "result": "significantly decreased the mitotic index"},
      {"measurement": "Kinetochore (+) MNi, %", "setting": "[2]; of 200 micronuclei, CBG 30 µM, CBD 15 µM, CBC 15 µM, CBDV 40 µM, CBN 15 µM, MMS 40 µM, vincristine 0.0121 µM, one experiment", "result": 47, "unit": "%"},
      {"measurement": "Kinetochore (+) induced MNi", "setting": "[2]; treatment – control (basal level of micronuclei subtracted), same concentrations", "result": 63.7, "unit": "%"},
      {"measurement": "Multipolar and monopolar tubulin aggregation", "setting": "TK6 cells [3]", "result": "observed more frequently"},
      {"measurement": "Cell cycle distribution, 6 h", "setting": "TK6 cells [4]; 6 h, CBC 15 µM, CBN 15 µM", "result": "no significant changes in the normal cell cycle distribution"},
      {"measurement": "Cell cycle distribution, 24 h", "setting": "TK6 cells [4]; 24 h", "result": "accumulation of cells in the G1 phase"},
      {"measurement": "DNA damage (comet assay)", "setting": "[5]; TR146, after 3 and 24 h", "result": "damaged DNA"},
      {"measurement": "Genotoxic properties with addition of liver enzymes (comet assay)", "setting": "[5]; TR146, with liver enzymes", "result": "increased the genotoxic properties"},
      {"measurement": "Micronucleus induction", "setting": "human hepatoma cells", "result": "significant induction of micronuclei"},
      {"measurement": "DNA damage (comet assay)", "setting": "colon-derived cells", "result": "did not induce DNA damage"},
      {"measurement": "Micronucleus results", "setting": "[6]", "result": "negative micronucleus results"},
      {"measurement": "Micronuclei in bone marrow in vivo", "setting": "bone marrow of mice", "result": "induction of micronuclei"}
    ]}
  ]
}
